# Experiments:
# Assay type in all cases: biochemical
# KDM6B (JMJD3) = biological target: T1, KDM6B (JMJD3) (Homo sapiens, UniProt O15054); assay: Histone lysine demethylase AlphaLISA assay, KDM6B; conditions: read-out: KDM6B HDME Inhibition IC50
# T1 construct: 1043-end; purchased BPS; host or cells: Bac (baculovirus system)
# Experimental: (§1) Assays are performed analogously to the protocol described by PerkinElmer (Roy et al. PerkinElmer Technical Note: AlphaLISA #12, April 2011)
# (§2) Enzymes are dissolved in enzyme buffer and incubated for 10 min before being added to 3% DMSO solutions of compounds in enzyme buffer. Incubated for another 10 minutes, before substrate solution is added and the reaction mixture is incubated at room temperature. 10 μL acceptor beads, suspended in Epigenetic Buffer (Perkin Elmer AL008) from stock, are added and the suspension is incubated in the dark at room temperature, before a suspension of streptavidin donor beads (Perkin Elmer 6760002) in Epigenetic Buffer is added. After incubation at room temperature in the dark the plates are read. […]
# BK27M3: Biotin-ATKAAR(Kme3)SAPATGGVKKPHRY-NH2? (Caslo, Denmark) […]
# (§3) Substrate Solution: Substrate, 25 μM L-Asc, and 10 μM α-KG in Buffer A.
# KDM7 (PHF8) = biological target: T2, KDM7 (PHF8) (Homo sapiens, UniProt Q9UPP1); assay: Histone lysine demethylase AlphaLISA assay, KDM7; conditions: read-out: PHF8 HDME Inhibition IC50
# T2 construct: KDM7 (PHF8); BRIC; 1-1322; Bac
# T2 sequence (Q9UPP1 37-440 limits assumed): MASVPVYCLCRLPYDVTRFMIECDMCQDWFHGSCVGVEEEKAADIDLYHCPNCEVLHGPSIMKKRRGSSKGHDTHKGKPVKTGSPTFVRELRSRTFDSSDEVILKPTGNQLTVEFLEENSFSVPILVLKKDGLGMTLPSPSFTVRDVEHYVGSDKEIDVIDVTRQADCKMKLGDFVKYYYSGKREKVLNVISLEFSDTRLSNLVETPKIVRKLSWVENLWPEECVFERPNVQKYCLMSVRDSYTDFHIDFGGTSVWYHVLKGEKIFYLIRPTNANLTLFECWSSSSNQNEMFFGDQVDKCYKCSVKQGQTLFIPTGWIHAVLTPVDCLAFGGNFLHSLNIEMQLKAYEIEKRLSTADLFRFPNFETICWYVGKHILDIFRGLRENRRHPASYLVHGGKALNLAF
# Experimental: as §1, §2
# BK9M2: Biotin-ARTKQTAR(KMe2)STGGKAPRKQ-NH2 (AnaSpec 64359)
# BK9M1: Biotin-ARTKQTAR(KMe1)STGGKAPRKQ-NH2 (AnaSpec 64358) […]
# as §3
# KDM5B (PLU-1) = biological target: T3, KDM5B (PLU-1) (Homo sapiens, UniProt Q9UGL1); assay: Histone lysine demethylase AlphaLISA assay, KDM5B; conditions: read-out: KDM5B HDME Inhibition IC50
# T3 sequence (Q9UGL1 1-809): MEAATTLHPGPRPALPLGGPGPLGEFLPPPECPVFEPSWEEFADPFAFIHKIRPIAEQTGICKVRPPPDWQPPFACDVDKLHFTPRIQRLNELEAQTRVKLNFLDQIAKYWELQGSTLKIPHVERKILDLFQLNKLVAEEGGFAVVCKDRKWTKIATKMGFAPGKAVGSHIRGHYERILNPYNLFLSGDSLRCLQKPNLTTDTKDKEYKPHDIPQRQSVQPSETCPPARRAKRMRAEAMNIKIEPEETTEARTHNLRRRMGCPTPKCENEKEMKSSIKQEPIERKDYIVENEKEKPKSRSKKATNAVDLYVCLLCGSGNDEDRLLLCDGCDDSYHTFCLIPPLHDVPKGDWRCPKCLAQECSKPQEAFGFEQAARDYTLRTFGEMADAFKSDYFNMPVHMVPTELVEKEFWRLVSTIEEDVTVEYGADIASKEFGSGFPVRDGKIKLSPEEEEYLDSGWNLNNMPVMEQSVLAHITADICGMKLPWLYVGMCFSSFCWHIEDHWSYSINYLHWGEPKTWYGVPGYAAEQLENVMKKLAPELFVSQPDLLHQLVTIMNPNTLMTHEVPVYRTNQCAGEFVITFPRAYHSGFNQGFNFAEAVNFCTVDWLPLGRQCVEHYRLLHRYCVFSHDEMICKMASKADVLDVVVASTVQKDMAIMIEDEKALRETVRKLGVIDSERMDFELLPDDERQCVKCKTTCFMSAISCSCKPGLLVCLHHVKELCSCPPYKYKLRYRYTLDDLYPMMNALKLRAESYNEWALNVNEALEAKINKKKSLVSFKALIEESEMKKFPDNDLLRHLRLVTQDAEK
# Method in brief: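 Steps: enzyme equilibrated 10 min in buffer; compounds in 3% DMSO solution added, 10 min; substrate mix added (peptide, 25 μM L-Asc, 10 μM α-KG), room temperature; acceptor beads, then streptavidin donor beads, dark incubations; plate read.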
# KDM4B (JMJD2B) = biological target: T4, KDM4B (JMJD2B) (Homo sapiens, UniProt O94953); assay: Histone lysine demethylase AlphaLISA assay, KDM4B; conditions: read-out: KDM4B HDME Inhibition IC50
# T4 construct: 2-500; purchased BPS; host or cells: Bac (baculovirus system)
# T4 sequence (O94953 2-500): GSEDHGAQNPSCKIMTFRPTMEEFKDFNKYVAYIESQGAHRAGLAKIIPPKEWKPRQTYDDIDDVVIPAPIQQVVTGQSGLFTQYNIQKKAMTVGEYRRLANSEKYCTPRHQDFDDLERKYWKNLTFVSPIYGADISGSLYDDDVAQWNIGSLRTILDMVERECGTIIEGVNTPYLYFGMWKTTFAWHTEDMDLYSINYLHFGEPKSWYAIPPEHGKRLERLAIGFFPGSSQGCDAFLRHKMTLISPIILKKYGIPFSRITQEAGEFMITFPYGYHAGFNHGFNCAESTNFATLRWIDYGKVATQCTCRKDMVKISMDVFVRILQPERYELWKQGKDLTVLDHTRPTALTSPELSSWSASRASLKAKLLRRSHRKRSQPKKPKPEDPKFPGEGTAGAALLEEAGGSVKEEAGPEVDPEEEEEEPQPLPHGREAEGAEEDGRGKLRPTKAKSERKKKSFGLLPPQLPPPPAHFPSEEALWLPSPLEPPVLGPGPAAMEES
# Experimental: as §1
# Enzymes are dissolved in enzyme buffer and incubated for 10 min before being added to 3% DMSO solutions of compounds in enzyme buffer. Incubated for another 10 minutes, before substrate solution is added and the reaction mixture is incubated at room temperature. 10 μL acceptor beads, suspended in Epigenetic Buffer (Perkin Elmer AL008) from stock, are added and the suspension is incubated in the dark at room temperature, before a suspension of streptavidin donor beads (Perkin Elmer 6760002) in Epigenetic Buffer is added. After incubation at room temperature in the dark the plates are read.
# BK9M3: Biotin-ARTKQTAR(KMe3)STGGKAPRKQ-NH2 (Caslo, Denmark) […]
# as §3
# T1 sequence (O15054 1043-1682 isoform O15054-1 limits assumed): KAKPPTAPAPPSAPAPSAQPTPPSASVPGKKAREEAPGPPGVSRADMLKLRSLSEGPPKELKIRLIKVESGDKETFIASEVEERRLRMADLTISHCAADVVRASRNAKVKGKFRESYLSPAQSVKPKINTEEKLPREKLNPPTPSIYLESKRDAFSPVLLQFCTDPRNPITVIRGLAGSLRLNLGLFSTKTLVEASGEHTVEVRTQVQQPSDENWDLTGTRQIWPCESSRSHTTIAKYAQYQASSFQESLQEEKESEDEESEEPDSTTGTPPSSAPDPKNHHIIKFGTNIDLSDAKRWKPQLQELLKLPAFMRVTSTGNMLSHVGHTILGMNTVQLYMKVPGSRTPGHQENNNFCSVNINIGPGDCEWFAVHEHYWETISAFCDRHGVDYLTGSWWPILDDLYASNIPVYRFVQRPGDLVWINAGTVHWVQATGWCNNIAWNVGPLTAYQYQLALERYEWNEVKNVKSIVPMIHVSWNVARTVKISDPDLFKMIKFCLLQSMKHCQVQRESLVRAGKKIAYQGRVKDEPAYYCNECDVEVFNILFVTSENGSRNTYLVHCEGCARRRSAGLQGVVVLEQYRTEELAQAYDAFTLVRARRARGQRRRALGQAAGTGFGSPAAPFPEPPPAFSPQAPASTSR
Compound,IC50 (KDM6B (JMJD3)),IC50 (KDM7 (PHF8)),IC50 (KDM5B (PLU-1)),IC50 (KDM4B (JMJD2B))
"CCN(CC)CCCCN(Cc1cc(CNC(=O)C(F)(F)F)ccn1)C(=O)C(F)(F)F [Compound 6, N-[4-(diethylamino)butyl]-- 2,2,2-trifluoro-N-({4-[(trifluoroacetamido)-methyl]pyridin-2-yl}methyl)acetamide]",> 2500 nM,250 to 2500 nM,> 2500 nM,< 250 nM
"NCc1ccnc(CNCCCCN2CCC2)c1 [Compound 7, [2-({[4-(azetidin-1-yl)butyl]amino}methyl)-pyridin-4-yl]-methanamine]",> 2500 nM,> 2500 nM,250 to 2500 nM,< 250 nM
"CN(C)CCCCCNCc1cc(CN)ccn1 [Compound 8, [2-({[5-(dimethylamino)pentyl]-amino}methyl)pyridin-4-yl]methanamine]",> 2500 nM,> 2500 nM,< 250 nM,> 2500 nM
"COc1ccccc1CN1CCC(NC(=O)CNCc2cc(CN)ccn2)CC1 [Compound 9, 2-({[4-(aminomethyl)pyridin-2-yl]methyl}amino)-N-{1-[(2-methoxyphenyl)methyl]-piperidin-4-yl}acetamide]",> 2500 nM,> 2500 nM,250 to 2500 nM,> 2500 nM
"CN(C)CCCCNCc1cc(CNC2CC2)ccn1 [Compound 10, N-{[2-({[4-(dimethylamino)butyl]-amino}methyl)pyridin-4-yl]methyl}-cyclopropanamine]",> 2500 nM,> 2500 nM,> 2500 nM,> 2500 nM
"CC1CCCCN1CCCNCc1cc(CNC2CC2)ccn1 (stereo not drawn) [Compound 11, N-{[2-({[3-(2-methylpiperidin-1-yl)propyl]amino}methyl)-pyridin-4-yl]methyl}-cyclopropanamine]",> 2500 nM,> 2500 nM,250 to 2500 nM,> 2500 nM
"CCCNCc1cc(CNC2CC2)ccn1 [Compound 12, N-({2-[(propylamino)methyl]-pyridin-4-yl}methyl)-cyclopropanamine]",> 2500 nM,> 2500 nM,250 to 2500 nM,< 250 nM
"CN(C)C(=O)CNCc1cc(CNCC#N)ccn1 [Compound 13, 2-{[(4-{[(cyanomethyl)amino]-methyl}pyridin-2-yl)methyl]amino}-N,N-dimethylacetamide]",> 2500 nM,> 2500 nM,250 to 2500 nM,> 2500 nM
"CN(C)C(=O)CNCc1cc(CNCCF)ccn1 [Compound 14, 2-{[(4-{[(2-fluoroethyl)amino]-methyl}pyridin-2-yl)methyl]amino}-N,N-dimethylacetamide]",> 2500 nM,> 2500 nM,250 to 2500 nM,250 to 2500 nM
"CN(C)CCNCc1ccnc(CNCC(=O)N(C)C)c1 [Compound 15, 2-({[4-({[2-(dimethylamino)ethyl]-amino}methyl)pyridin-2-yl]methyl}amino)-N,N-dimethylacetamide]",> 2500 nM,> 2500 nM,< 250 nM,250 to 2500 nM
"c1ccc(CN2CCC[C@H]2CNCc2cc(CNCC3CC3)ccn2)cc1 [Compound 16, {[(2S)-1-benzylpyrrolidin-2-yl]methyl}[(4-{[(cyclopropylmethyl)-amino]methyl}pyridin-2-yl)methyl]amine]",> 2500 nM,250 to 2500 nM,250 to 2500 nM,> 2500 nM
"CNCc1ccnc(CNCCCN(C)Cc2ccccc2)c1 [Compound 17, benzyl(methyl){3-[({4-[(methylamino)methyl]-pyridin-2-yl)methyl)-amino]propyl}-amine]",> 2500 nM,> 2500 nM,< 250 nM,250 to 2500 nM
"CN(C)CCNCc1cc(CNC(C#N)C2CC2)ccn1 (stereo not drawn) [Compound 21, 2-cyclopropyl-2-({[2-({[2-(dimethylamino)ethyl]-amino}methyl)pyridin-4-yl]methyl}amino)-acetonitrile]",> 2500 nM,> 2500 nM,> 2500 nM,> 2500 nM
"CC(C#N)NCc1ccnc(CNCCCN(C)C)c1 (stereo not drawn) [Compound 22, 2-({[2-({[3-(dimethylamino)propyl]-amino}methyl)pyridin-4-yl]methyl}amino)-propanenitrile]",> 2500 nM,> 2500 nM,250 to 2500 nM,250 to 2500 nM
"N#CCNCc1ccnc(CNCCCCN(Cc2ccccc2)C2CC2)c1 [Compound 23, 2-[({2-[({4-[benzyl(cyclopropyl)-amino]butyl}amino)-methyl]pyridin-4-yl}methyl)amino]-acetonitrile]",> 2500 nM,> 2500 nM,250 to 2500 nM,> 2500 nM
"CNC(C#N)c1ccnc(CNCCCN(C)C)c1 (stereo not drawn) [Compound 24, 2-[2-({[3-(dimethylamino)propyl]-amino}methyl)pyridin-4-yl]-2-(methylamino)-acetonitrile]",> 2500 nM,> 2500 nM,< 250 nM,< 250 nM
"CCN(CCN(C)C)C(=O)CNCc1cc(CNC(=O)C(F)(F)F)ccn1 [Compound 25, N-[(2-{[({[2-(dimethylamino)ethyl]-(ethyl)carbamoyl}-methyl)amino]methyl}-pyrtdin-4-yl)methyl]-2,2,2-trifluoroacetamide]",> 2500 nM,> 2500 nM,250 to 2500 nM,> 2500 nM
CN(C)C(=O)CNCc1cc(/C=N\C2CC2)ccn1 [Compound 33],> 2500 nM,> 2500 nM,< 250 nM,> 2500 nM
"CN(C)C(=O)CNCc1cc(/C=N/CCCc2ccccc2)ccn1 [Compound 34, N,N-dimethyl-2-[({4-[[(3-phenylpropyl)imino]-methyl]pyridin-2-yl}methyl)amino]-acetamide]",> 2500 nM,> 2500 nM,< 250 nM,> 2500 nM
"CC1CC1/N=C/c1ccnc(CNCC(=O)N(C)C)c1 (stereo not drawn) [Compound 35, N,N-dimethyl-2-[({4-[N-(2-methylcyclopropyl)-carboximidoyl]pyridin-2-yl}methyl)amino]-acetamide]",> 2500 nM,< 250 nM,250 to 2500 nM,< 250 nM
"CN(C)C(=O)CNCc1cc(/C=N/CCC2CCCCC2)ccn1 [Compound 36, 2-[({4-[[(2-cyclohexylethyl)imino]-methyl]pyridin-2-yl}methyl)amino]-N,N-dimethylacetamide]",> 2500 nM,250 to 2500 nM,< 250 nM,< 250 nM

# — patent US9650339B2, “Inhibitors of histone demethylases” (Gilead Sciences, Inc., priority 2013, dated 2017)
